The values below are quoted from earlier work in PMC7518156 (PeerJ, 2020).

The structures appear in SMILES notation. Like-named read-outs stand apart in the source and are kept apart here.

By Tmax is commonly meant the time at which the peak concentration occurs.

For this data set the following is noted: ref Scheffler et al., 2011, cited from earlier work; for half-life (t1/2): Lu et al., 2006.
Setting [1] is: oral administration, cancer patients.
[2] abbreviates: oral administration, healthy subjects.

Regarding `C#Cc1cccc(Nc2ncnc3cc(OCCOC)c(OCCOC)cc23)c1` [ERL, Erlotinib], the “half-life (t1/2)” value (cancer patients) is given as “up to 40.9 h”. In addition, the “half-life (t1/2)” value (healthy patients) is “about 24.4 h”. Also, under setting [1], the F is reported as 76% and the Tmax was 3 h. Under setting [2], the “mean bioavailability (F)” value is recorded as 59% and the “time to reach maximum concentration (tmax)” value is reported as 1.4 h.

For `COc1cc2ncnc(Nc3ccc(F)c(Cl)c3)c2cc1OCCCN1CCOCC1` [GEF, Gefitinib], the “half-life (t1/2)” value (cancer patients) is on record as about 48 h and the “half-life (t1/2)” value (healthy patients) was “about 41 h”. In addition, the Tmax entry under setting [1] is reported as “about 7 h”. Moreover, the “time to reach maximum concentration (tmax)” value under setting [2] is on record as 3 h.
